In this assay the target is T1, MAGL (Homo sapiens, UniProt Q99685).
T1 sequence (Q99685 1-303): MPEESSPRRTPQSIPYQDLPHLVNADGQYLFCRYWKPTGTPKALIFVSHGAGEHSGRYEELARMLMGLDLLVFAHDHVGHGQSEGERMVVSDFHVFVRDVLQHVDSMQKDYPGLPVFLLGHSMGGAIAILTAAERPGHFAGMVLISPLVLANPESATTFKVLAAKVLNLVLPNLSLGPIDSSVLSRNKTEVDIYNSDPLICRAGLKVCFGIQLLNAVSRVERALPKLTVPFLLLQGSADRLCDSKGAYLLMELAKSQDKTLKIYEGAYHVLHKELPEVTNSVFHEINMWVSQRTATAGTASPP
The experiment in a line: 2-AG assay (MAGL inhibitory activity, hydrolysis of 2-arachidonoylglycerol followed by mass spectrometry). The settings on record: 15 min preincubation at RT, 8 μM 2-arachidonoylglycerol, 30 min at RT, arachidonic acid by MS. In kind it is biochemical. The method, then:
Compounds were profiled for MAGL inhibitory activity by determining the enzymatic activity by following the hydrolysis of the natural substrate 2-arachidonoylglycerol (2-AG) resulting in arachidonic acid, which can be followed by mass spectrometry. This assay is hereinafter abbreviated “2-AG assay”.
The 2-AG assay was carried out in 384 well assay plates (PP, Greiner Cat #784201) in a total volume of 20 μL. Compound dilutions were made in 100% DMSO (VWR Chemicals 23500.297) in a polypropylene plate in 3-fold dilution steps to give a final concentration range in the assay from 12.5 μM to […]. 0.25 μL compound dilutions (100% DMSO) were added to 9 μL MAGL in assay buffer (50 mM TRIS (GIBCO, 15567-027), 1 mM EDTA (Fluka, 03690-100 mL), 0.01% (v/v) Tween. After shaking, the plate was incubated for 15 min at RT. To start the reaction, 10 μL 2-arachidonoylglycerol in assay buffer was added. The final concentrations in the assay was […] and 8 μM 2-arachidonoylglyerol. After shaking and 30 min incubation at RT, the reaction was quenched by the addition of 40 μL of ACN containing 4 μM of d8-arachidonic acid. The amount of arachidonic acid was traced by an online SPE system (Agilent Rapidfire) coupled to a triple quadrupole mass spectrometer (Agilent 6460). A C18 SPE cartridge (G9205A) was used in an ACN/water liquid setup. The mass spectrometer was operated in negative electrospray mode following the mass transitions 303.1→259.1 for arachidonic acid and 311.1→267.0 for d8-arachidonic acid. The activity of the compounds was calculated based on the ratio of intensities [arachidonic acid/d8-arachidonic acid].

In turn, `O=C1CO[C@H]2CCN(C(=O)N3CC(c4nc(-c5ccc(Cl)cc5C(F)(F)F)no4)C3)C[C@H]2N1` [Example 9, (4aR,8aS)-6-[3-[3-[4-Chloro-2-(trifluoromethyl)phenyl]-1,2,4-oxadiazol-5-yl]azetidine-1-carbonyl]-4,4a,5,7,8,8a-hexahydropyrido[4,3-b][1,4]oxazin-3-one] registered an IC50 of 23.5 nM.

The molecule `CC1C(OCc2c(F)cccc2C(F)(F)F)CN1C(=O)N1CC[C@@H]2OCC(=O)N[C@@H]2C1` (single isomer, unassigned) [Example 27] had an IC50 of 18.8 nM.

The molecule `O=C1CO[C@H]2CCN(C(=O)N3CC(OCc4ccccc4OC(F)(F)F)C3)C[C@H]2N1` [Example 32, (4aR,8aS)-6-(3-((2-(Trifluoromethoxy)benzyl)oxy)azetidine-1-carbonyl)hexahydro-2H-pyrido[4,3-b][1,4]oxazin-3(4H)-one] came in with an IC50 of 22.5 nM.

Regarding `O=C1CO[C@H]2CCN(C(=O)N3CC(OCc4ccc(F)cc4C(F)(F)F)C3)C[C@H]2N1` [Example 49, (4aR,8aS)-6-[3-[[4-Fluoro-2-(trifluoromethyl)phenyl]methoxy]azetidine-1-carbonyl]-4,4a,5,7,8,8a-hexahydropyrido[4,3-b][1,4]oxazin-3-one], the IC50 worked out at 34 nM.

In turn, `O=C1CO[C@H]2CCN(C(=O)N3CCC(c4ccnnc4C(F)(F)F)CC3)C[C@H]2N1` [Example 47, (4aR,8aS)-6-(4-(3-(Trifluoromethyl)pyridazin-4-yl)piperidine-1-carbonyl)hexahydro-2H-pyrido[4,3-b][1,4]oxazin-3(4H)-one] came in with an IC50 of 90.9 nM.

In the case of `O=C1CO[C@H]2CCN(C(=O)N3CC(c4noc(-c5ccc(Cl)cc5Cl)n4)C3)C[C@H]2N1` [Example 18, (4aR,8aS)-6-(3-(5-(2,4-Dichlorophenyl)-1,2,4-oxadiazol-3-yl)azetidine-1-carbonyl)hexahydro-2H-pyrido[4,3-b][1,4]oxazin-3(4H)-one], 39.2 nM corresponded to half-maximal inhibition (IC50).

Consider `COc1cc(COC2CN(C(=O)N3CC[C@@H]4OCC(=O)N[C@@H]4C3)C2)ccc1F` [Example 30, (4aR,8aS)-6-(3-((4-Fluoro-3-methoxybenzyl)oxy)azetidine-1-carbonyl)hexahydro-2H-pyrido[4,3-b][1,4]oxazin-3(4H)-one], for which the IC50 was determined as 77.3 nM.

Take “(4aR,8aS)-6-[rel-(3R,4R)-4-[(2-chloro-4-fluoro-phenoxy)methyl]-3-methyl-piperidine-1-carbonyl]-4,4a,5,7,8,8a-hexahydropyrido[4,3-b][1,4]oxazin-3-one [Example 39]”: the 50% inhibitory concentration (IC50) was found to be 1.9 nM.

The molecule `O=C1CO[C@H]2CCN(C(=O)N3CC(c4cccc(OC(F)(F)F)c4)C3)C[C@H]2N1` [Example 19, (4aR,8aS)-6-(3-(3-(Trifluoromethoxy)phenyl)azetidine-1-carbonyl)hexahydro-2H-pyrido[4,3-b][1,4]oxazin-3(4H)-one] gave an IC50 of 44.1 nM.

Turning to `O=C1CO[C@H]2CCN(C(=O)N3CC(OCc4ccc(OC(F)(F)F)cc4)C3)C[C@H]2N1` [Example 44, (4aR,8aS)-6-(3-((4-(Trifluoromethoxy)benzyl)oxy)azetidine-1-carbonyl)hexahydro-2H-pyrido[4,3-b][1,4]oxazin-3(4H)-one], half-maximal inhibition (IC50) required 23.6 nM.

The molecule `O=C1CO[C@H]2CCN(C(=O)N3CC(OCc4c(Cl)cccc4Cl)C3)C[C@H]2N1` [Example 21, (4aR,8aS)-6-(3-((2,6-Dichlorobenzyl)oxy)azetidine-1-carbonyl)hexahydro-2H-pyrido[4,3-b][1,4]oxazin-3(4H)-one] returned an IC50 of 27.8 nM.

As for `O=C1CO[C@H]2CCN(C(=O)N3CC(c4ccc(C5CCOCC5)cc4)C3)C[C@H]2N1` [Example 5, (4aR,8aS)-6-[3-(4-Tetrahydropyran-4-ylphenyl)azetidine-1-carbonyl]-4,4a,5,7,8,8a-hexahydropyrido[4,3-b][1,4]oxazin-3-one], the IC50 amounted to 6 nM.

In turn, `O=C1CO[C@H]2CCN(C(=O)N3CCC(OCc4ccc(F)cc4Cl)CC3)C[C@H]2N1` [Example 25, (4aR,8aS)-6-(4-((2-Chloro-4-fluorobenzyl)oxy)piperidine-1-carbonyl)hexahydro-2H-pyrido[4,3-b][1,4]oxazin-3(4H)-one] gave an IC50 of 72.5 nM.

The molecule `O=C1CO[C@H]2CCN(C(=O)N3CC(OCc4ccc(S(F)(F)(F)(F)F)cc4)C3)C[C@H]2N1` [Example 31, (4aR,8aS)-6-(3-((4-(Pentafluoro-16-sulfanyl)benzyl)oxy)azetidine-1-carbonyl)hexahydro-2H-pyrido[4,3-b][1,4]oxazin-3(4H)-one] gave an IC50 of 5.8 nM.

In the case of `O=C1CO[C@H]2CCN(C(=O)N3CCC(c4ccn(-c5ccc(F)cc5)n4)CC3)C[C@H]2N1` [Example 20, (4aR,8aS)-6-(4-(1-(4-Fluorophenyl)-1H-pyrazol-3-yl)piperidine-1-carbonyl)hexahydro-2H-pyrido[4,3-b][1,4]oxazin-3(4H)-one], 147 nM corresponded to half-maximal inhibition (IC50).

Molecule `O=C1CO[C@H]2CCN(C(=O)N3CC(c4ccc(OCC5CC5)cc4)C3)C[C@H]2N1` [Example 15, (4aR,8aS)-6-(3-(4-(Cyclopropylmethoxy)phenyl)azetidine-1-carbonyl)hexahydro-2H-pyrido[4,3-b][1,4]oxazin-3(4H)-one] came in with an IC50 of 8.7 nM.

As to `O=C1CO[C@H]2CCN(C(=O)N3CC(c4ccc(C5CCOC5)cc4)C3)C[C@H]2N1` (single isomer, unassigned) [Example 1, (4aR,8aS)-6-[3-[4-[(3R or S)-Tetrahydrofuran-3-yl]phenyl]azetidine-1-carbonyl]-4,4a,5,7,8,8a-hexahydropyrido[4,3-b][1,4]oxazin-3-one], it took 33.1 nM to reach half-maximal inhibition (IC50).

`O=C1CO[C@H]2CCN(C(=O)N3CCC(Cc4ccc(C(F)(F)F)c(-c5ccccc5)c4)CC3)C[C@H]2N1` [Example 35, (4aR,8aS)-6-[4-[[3-Phenyl-4-(trifluoromethyl)phenyl]methyl]piperidine-1-carbonyl]-4,4a,5,7,8,8a-hexahydropyrido[4,3-b][1,4]oxazin-3-one] registered an IC50 of 4.6 nM.

With `CC(C)(Oc1ccc(C2CN(C(=O)N3CC[C@@H]4OCC(=O)N[C@@H]4C3)C2)cc1)C(F)(F)F` [Example 12, (4aR,8aS)-6-[3-[4-(2,2,2-Trifluoro-1,1-dimethyl-ethoxy)phenyl]azetidine-1-carbonyl]-4,4a,5,7,8,8a-hexahydropyrido[4,3-b][1,4]oxazin-3-one], the IC50 is 0.3 nM.

As for `O=C1CO[C@H]2CCN(C(=O)N3CC(OCc4ccc(C(F)(F)F)cn4)C3)C[C@H]2N1` [Example 43, (4aR,8aS)-6-(3-((5-(Trifluoromethyl)pyridin-2-yl)methoxy)azetidine-1-carbonyl)hexahydro-2H-pyrido[4,3-b][1,4]oxazin-3(4H)-one], half-maximal inhibition (IC50) was put at 159 nM.

On to `O=C1CO[C@H]2CCN(C(=O)N3CC(C(=O)Nc4ccc(F)cc4Cl)C3)C[C@H]2N1` [Example 45, N-(2-chloro-4-fluorophenyl)-1-((4aR,8aS)-3-oxooctahydro-2H-pyrido[4,3-b][1,4]oxazine-6-carbonyl)azetidine-3-carboxamide], for which it took 1250 nM to reach half-maximal inhibition (IC50).

On to `O=C1CO[C@H]2CCN(C(=O)N3CC(OCc4ccc(OC(F)F)cc4)C3)C[C@H]2N1` [Example 40, (4aR,8aS)-6-(3-((4-(Difluoromethoxy)benzyl)oxy)azetidine-1-carbonyl)hexahydro-2H-pyrido[4,3-b][1,4]oxazin-3(4H)-one], for which it took 46.9 nM to reach half-maximal inhibition (IC50).

For the molecule `O=C1CO[C@H]2CCN(C(=O)N3CC(c4ccc(OC5CCCC5)cc4)C3)C[C@H]2N1` [Example 13, (4aR,8aS)-6-(3-(4-(Cyclopentyloxy)phenyl)azetidine-1-carbonyl)hexahydro-2H-pyrido[4,3-b][1,4]oxazin-3(4H)-one], inhibition was half-maximal at 0.6 nM (IC50).

For `CC1C(OCc2c(F)cccc2C(F)(F)F)CN1C(=O)N1CC[C@@H]2OCC(=O)N[C@@H]2C1` (single isomer, unassigned) [Example 28], the IC50 stood at 342 nM.

With `O=C1CO[C@H]2CCN(C(=O)N3CC(c4nsc(-c5ccc(Cl)cc5Cl)n4)C3)C[C@H]2N1` [Example 7, (4aR,8aS)-6-[3-[5-(2,4-Dichlorophenyl)-1,2,4-thiadiazol-3-yl]azetidine-1-carbonyl]-4,4a,5,7,8,8a-hexahydropyrido[4,3-b][1,4]oxazin-3-one], the midpoint of inhibition, the IC50, lay at 9.1 nM.

For the origin of these results see patent US20210094973A1, “HETEROCYCLIC COMPOUNDS” (Hoffmann-La Roche Inc., priority 2019, published 2021).
